Tests used:
[1] = molecular target: Interstitial collagenase (Homo sapiens) (UniProt P03956); test: Inhibition of Peptidase, Matrix Metalloproteinase-1 (MMP-1) at 10 µM in the Eurofins-Panlabs enzyme assay (Eurofins_assay_114110); settings: Compound concentration 10.0 uM
[2] = molecular target: 5-hydroxytryptamine receptor 1E (Homo sapiens) (UniProt P28566); settings: Compound concentration 10.0 uM
[3] = molecular target: T1, Sodium-dependent dopamine transporter (Homo sapiens, UniProt Q01959); settings: Compound concentration 10.0 uM
T1 sequence (Q01959 whole entry): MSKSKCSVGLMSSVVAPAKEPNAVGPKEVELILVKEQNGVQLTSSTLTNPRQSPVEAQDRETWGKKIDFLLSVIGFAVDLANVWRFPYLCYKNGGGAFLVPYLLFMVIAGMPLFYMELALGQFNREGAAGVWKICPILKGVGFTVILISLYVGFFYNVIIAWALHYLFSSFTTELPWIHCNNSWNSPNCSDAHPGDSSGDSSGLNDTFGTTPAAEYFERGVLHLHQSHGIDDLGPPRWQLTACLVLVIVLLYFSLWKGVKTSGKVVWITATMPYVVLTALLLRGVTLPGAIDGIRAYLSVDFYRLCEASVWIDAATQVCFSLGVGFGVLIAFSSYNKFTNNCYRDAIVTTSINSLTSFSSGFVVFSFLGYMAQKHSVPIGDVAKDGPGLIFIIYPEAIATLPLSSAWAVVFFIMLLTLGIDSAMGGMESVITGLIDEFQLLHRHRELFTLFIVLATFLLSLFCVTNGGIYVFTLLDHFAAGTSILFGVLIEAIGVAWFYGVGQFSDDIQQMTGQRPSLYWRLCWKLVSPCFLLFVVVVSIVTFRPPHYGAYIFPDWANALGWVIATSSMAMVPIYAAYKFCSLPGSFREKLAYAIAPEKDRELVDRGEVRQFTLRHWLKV

[4] = molecular target: 5-hydroxytryptamine receptor 2B (Homo sapiens) (UniProt P41595); settings: Compound concentration 10.0 uM
Chain of 5-hydroxytryptamine receptor 2B (Homo sapiens) (P41595 whole entry): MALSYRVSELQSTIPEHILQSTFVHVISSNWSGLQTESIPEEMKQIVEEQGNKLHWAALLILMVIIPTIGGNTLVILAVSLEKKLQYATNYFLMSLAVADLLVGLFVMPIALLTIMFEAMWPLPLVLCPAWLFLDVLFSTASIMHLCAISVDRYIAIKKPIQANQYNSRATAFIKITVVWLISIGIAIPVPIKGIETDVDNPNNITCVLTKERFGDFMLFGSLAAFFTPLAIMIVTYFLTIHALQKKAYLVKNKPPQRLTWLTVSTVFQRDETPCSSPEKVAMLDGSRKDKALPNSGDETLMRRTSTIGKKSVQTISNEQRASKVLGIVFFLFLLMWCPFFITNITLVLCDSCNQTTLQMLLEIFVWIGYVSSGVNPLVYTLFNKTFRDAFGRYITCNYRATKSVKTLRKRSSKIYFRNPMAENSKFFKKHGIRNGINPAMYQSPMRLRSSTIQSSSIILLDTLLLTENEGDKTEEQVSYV

[5] = species on record: Homo sapiens; settings: Compound concentration 10.0 uM
[6] = molecular target: GABA-A receptor; anion channel (Rattus norvegicus) (UniProt O09028+P15431+P18506+P18508+P19969+P20236+P23574+P23576+P28471+P28473+P30191+P62813+P63079+P63138+Q91ZM7+Q9ES14); test: Inhibition of GABAA, Muscimol, Central at 10 µM in the Eurofins-Panlabs radioligand binding assay (Eurofins_assay_226500); format: protein-complex assay; settings: Compound concentration 10.0 uM
[7] = molecular target: Xanthine dehydrogenase/oxidase (Bos taurus) (UniProt P80457); test: Xanthine Oxidase Eurofins-Panlabs enzyme assay; settings: cattle, bovine milk xanthine oxidase, probe Xanthine, 165 µM
[8] = molecular target: Prostaglandin G/H synthase 1 (Homo sapiens) (UniProt P23219); test: Inhibition of Cyclooxygenase COX-1 at compound concentration of 10.0 uM in the Eurofins-Panlabs enzyme assay (Eurofins_assay_116020); settings: Compound concentration 10.0 uM
[9] = species on record: Rattus norvegicus; test: Testosterone Eurofins-Panlabs radioligand binding assay; design: ligand concentration 1.5 nM; settings: Compound concentration 10.0 uM
[10] = molecular target: D(1A) dopamine receptor (Homo sapiens) (UniProt P21728); settings: Compound concentration 10.0 uM
Chain of D(1A) dopamine receptor (Homo sapiens) (P21728 whole entry): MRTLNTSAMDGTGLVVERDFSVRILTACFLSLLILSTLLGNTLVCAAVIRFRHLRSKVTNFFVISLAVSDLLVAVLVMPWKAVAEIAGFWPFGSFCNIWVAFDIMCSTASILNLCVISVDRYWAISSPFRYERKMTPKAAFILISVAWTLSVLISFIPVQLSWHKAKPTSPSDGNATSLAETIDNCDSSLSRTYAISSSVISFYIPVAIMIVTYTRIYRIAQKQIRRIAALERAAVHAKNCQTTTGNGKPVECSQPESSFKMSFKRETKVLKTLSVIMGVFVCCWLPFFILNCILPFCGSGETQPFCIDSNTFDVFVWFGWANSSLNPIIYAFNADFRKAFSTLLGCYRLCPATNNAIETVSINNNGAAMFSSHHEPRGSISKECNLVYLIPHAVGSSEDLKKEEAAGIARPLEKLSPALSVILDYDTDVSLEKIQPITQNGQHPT

[11] = molecular target: ATP-sensitive inward rectifier potassium channel 11 (Cricetulus griseus) (UniProt A0A3L7HHE1); test: Inhibition of Potassium Channel [KATP] at 10 µM in the Eurofins-Panlabs radioligand binding assay (Eurofins_assay_265600); settings: Cricetinae; Compound concentration 10.0 uM
[12] = molecular target: Growth hormone secretagogue receptor type 1 (Homo sapiens) (UniProt Q92847); settings: Compound concentration 10.0 uM
Chain of Growth hormone secretagogue receptor type 1 (Homo sapiens) (Q92847 whole entry): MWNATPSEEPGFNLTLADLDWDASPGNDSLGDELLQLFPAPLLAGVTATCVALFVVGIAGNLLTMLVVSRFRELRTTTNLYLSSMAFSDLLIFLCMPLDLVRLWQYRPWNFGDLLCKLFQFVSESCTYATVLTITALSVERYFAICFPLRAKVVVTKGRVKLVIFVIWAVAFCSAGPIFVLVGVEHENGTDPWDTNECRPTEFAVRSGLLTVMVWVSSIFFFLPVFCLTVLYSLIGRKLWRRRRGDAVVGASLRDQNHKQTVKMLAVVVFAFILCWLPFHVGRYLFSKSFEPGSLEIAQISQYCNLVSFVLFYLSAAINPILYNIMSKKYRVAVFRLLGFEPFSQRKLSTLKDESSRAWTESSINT

[13] = molecular target: Muscarinic acetylcholine receptor M3 (Homo sapiens) (UniProt P20309); settings: Compound concentration 10.0 uM
Chain of Muscarinic acetylcholine receptor M3 (Homo sapiens) (P20309 whole entry, looked up): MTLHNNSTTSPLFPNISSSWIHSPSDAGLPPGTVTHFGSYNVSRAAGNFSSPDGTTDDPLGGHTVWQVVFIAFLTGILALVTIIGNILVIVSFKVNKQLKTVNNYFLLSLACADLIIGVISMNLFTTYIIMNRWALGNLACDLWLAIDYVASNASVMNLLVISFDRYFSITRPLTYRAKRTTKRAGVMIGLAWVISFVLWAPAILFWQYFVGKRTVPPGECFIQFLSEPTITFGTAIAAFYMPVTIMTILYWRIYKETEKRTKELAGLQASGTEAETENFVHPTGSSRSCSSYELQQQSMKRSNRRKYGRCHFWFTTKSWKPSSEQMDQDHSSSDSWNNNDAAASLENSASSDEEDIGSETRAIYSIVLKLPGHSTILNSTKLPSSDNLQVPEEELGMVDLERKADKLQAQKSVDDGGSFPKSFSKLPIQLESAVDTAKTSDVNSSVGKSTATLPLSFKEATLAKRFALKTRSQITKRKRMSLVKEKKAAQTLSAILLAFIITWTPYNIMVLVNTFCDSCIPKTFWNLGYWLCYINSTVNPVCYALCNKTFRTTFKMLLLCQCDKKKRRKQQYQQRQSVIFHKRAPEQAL

[14] = molecular target: Sigma intracellular receptor 2 (Homo sapiens) (UniProt Q5BJF2); settings: Compound concentration 10.0 uM
Chain of Sigma intracellular receptor 2 (Homo sapiens) (Q5BJF2 whole entry): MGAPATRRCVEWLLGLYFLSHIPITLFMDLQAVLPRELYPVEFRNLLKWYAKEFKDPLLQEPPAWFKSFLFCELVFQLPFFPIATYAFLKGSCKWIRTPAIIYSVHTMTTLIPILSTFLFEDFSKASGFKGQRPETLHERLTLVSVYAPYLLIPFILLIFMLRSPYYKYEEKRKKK

[15] = molecular target: Substance-P receptor (Homo sapiens) (UniProt P25103); test: Tachykinin NK1 Eurofins-Panlabs radioligand binding assay; settings: Compound concentration 10.0 uM
Chain of Substance-P receptor (Homo sapiens) (P25103 whole entry): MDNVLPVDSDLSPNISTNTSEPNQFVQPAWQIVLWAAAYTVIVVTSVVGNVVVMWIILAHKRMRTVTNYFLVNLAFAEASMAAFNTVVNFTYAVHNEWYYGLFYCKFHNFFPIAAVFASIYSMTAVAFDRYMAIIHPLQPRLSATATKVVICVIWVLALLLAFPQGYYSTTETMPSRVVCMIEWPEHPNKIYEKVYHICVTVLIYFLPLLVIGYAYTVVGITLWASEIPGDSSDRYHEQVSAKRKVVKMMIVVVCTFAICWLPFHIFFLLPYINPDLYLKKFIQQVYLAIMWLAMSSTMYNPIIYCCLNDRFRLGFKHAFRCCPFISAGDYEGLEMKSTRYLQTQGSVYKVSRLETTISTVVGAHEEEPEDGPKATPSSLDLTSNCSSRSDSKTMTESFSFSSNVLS

[16] = molecular target: Glucocorticoid receptor (Homo sapiens) (UniProt P04150); test: Glucocorticoid Eurofins-Panlabs radioligand binding assay; settings: Compound concentration 10.0 uM
[17] = molecular target: T1, Sodium-dependent dopamine transporter; settings: Compound concentration 10.0 uM; remark: listed apart in the source
[18] = species on record: Rattus norvegicus; test: Protein Serine/Threonine Kinase, PKC, Non-Selective Eurofins-Panlabs enzyme assay; settings: Compound concentration 10.0 uM
[19] = molecular target: Glutamate receptor ionotropic, kainate (Rattus norvegicus) (UniProt P22756+Q01812+P42260+P42264+Q63273); test: Inhibition of Glutamate, Kainate at 10 µM in the Eurofins-Panlabs radioligand binding assay (Eurofins_assay_232700); settings: Compound concentration 10.0 uM
[20] = molecular target: Insulin receptor (Homo sapiens) (UniProt P06213); settings: Rattus norvegicus; Compound concentration 10.0 uM
[21] = molecular target: Gamma-aminobutyric acid type B receptor subunit 1 (Homo sapiens) (UniProt Q9UBS5); test: GABAB1A Eurofins-Panlabs radioligand binding assay; settings: Compound concentration 10.0 uM
[22] = species on record: Rattus norvegicus; test: Inhibition of Glutamate, NMDA, Phencyclidine at 10 µM in the Eurofins-Panlabs radioligand binding assay (Eurofins_assay_233000); format: protein-complex assay; settings: Compound concentration 10.0 uM
[23] = molecular target: Sodium-dependent noradrenaline transporter (Homo sapiens) (UniProt P23975); settings: Compound concentration 10.0 uM
[24] = molecular target: Substance-K receptor (Homo sapiens) (UniProt P21452); test: Inhibition of Tachykinin NK2 at 10 µM in the Eurofins-Panlabs radioligand binding assay (Eurofins_assay_255600); design: ligand concentration 0.5 nM; settings: Compound concentration 10.0 uM
Chain of Substance-K receptor (Homo sapiens) (P21452 whole entry): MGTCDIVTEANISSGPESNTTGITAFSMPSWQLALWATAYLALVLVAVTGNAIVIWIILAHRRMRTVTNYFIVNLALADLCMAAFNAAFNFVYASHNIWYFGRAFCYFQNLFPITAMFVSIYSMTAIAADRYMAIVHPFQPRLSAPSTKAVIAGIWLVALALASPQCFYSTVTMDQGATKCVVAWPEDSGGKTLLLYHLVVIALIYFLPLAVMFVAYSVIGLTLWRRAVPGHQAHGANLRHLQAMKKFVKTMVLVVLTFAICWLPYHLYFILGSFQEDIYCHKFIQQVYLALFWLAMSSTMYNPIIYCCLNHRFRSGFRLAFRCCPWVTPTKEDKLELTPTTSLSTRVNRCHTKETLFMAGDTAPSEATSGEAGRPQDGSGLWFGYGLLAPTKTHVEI

[25] = species on record: Rattus norvegicus; test: Opiate, Non-Selective Eurofins-Panlabs radioligand binding assay; design: ligand concentration 1 nM; settings: Compound concentration 10.0 uM
[26] = molecular target: Beta-3 adrenergic receptor (Homo sapiens) (UniProt P13945); settings: Compound concentration 10.0 uM
Chain of Beta-3 adrenergic receptor (Homo sapiens) (P13945 whole entry, looked up): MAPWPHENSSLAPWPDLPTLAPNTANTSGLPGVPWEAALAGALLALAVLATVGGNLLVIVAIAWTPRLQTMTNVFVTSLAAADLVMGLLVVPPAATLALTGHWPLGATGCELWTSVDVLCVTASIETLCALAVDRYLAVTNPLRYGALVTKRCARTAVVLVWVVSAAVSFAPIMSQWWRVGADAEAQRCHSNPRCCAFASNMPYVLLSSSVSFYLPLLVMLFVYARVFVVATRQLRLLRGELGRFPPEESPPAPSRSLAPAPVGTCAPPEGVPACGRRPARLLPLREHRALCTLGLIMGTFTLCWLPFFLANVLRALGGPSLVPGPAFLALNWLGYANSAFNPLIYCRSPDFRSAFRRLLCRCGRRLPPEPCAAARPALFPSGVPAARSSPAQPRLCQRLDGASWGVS

[27] = molecular target: Renin (Homo sapiens) (UniProt P00797); test: Peptidase, Renin Eurofins-Panlabs enzyme assay; settings: Compound concentration 10.0 uM
[28] = species on record: Rattus norvegicus; test: Adrenergic α2, Non-selective Eurofins-Panlabs radioligand binding assay; format: protein assay; settings: Compound concentration 10.0 uM
[29] = molecular target: D(1B) dopamine receptor (Homo sapiens) (UniProt P21918); settings: Compound concentration 10.0 uM
Chain of D(1B) dopamine receptor (Homo sapiens) (P21918 whole entry): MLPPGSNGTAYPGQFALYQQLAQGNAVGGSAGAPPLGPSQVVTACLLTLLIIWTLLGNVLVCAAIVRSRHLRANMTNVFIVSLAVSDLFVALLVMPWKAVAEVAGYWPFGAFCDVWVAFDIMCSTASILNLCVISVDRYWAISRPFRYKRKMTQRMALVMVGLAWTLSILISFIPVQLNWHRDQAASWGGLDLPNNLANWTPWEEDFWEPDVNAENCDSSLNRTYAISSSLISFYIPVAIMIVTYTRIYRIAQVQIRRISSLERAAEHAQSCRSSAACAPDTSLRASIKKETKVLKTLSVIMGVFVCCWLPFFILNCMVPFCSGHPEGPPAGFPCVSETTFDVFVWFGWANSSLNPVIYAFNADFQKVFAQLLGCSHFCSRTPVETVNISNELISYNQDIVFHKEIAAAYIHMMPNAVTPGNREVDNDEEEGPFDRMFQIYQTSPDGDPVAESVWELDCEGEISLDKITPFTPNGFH

[30] = molecular target: Glutamate receptor 2 (Homo sapiens) (UniProt P42262); settings: Rattus norvegicus; Compound concentration 10.0 uM
[31] = molecular target: Estrogen receptor (Homo sapiens) (UniProt P03372); settings: Compound concentration 10.0 uM
Chain of Estrogen receptor (Homo sapiens) (P03372 whole entry): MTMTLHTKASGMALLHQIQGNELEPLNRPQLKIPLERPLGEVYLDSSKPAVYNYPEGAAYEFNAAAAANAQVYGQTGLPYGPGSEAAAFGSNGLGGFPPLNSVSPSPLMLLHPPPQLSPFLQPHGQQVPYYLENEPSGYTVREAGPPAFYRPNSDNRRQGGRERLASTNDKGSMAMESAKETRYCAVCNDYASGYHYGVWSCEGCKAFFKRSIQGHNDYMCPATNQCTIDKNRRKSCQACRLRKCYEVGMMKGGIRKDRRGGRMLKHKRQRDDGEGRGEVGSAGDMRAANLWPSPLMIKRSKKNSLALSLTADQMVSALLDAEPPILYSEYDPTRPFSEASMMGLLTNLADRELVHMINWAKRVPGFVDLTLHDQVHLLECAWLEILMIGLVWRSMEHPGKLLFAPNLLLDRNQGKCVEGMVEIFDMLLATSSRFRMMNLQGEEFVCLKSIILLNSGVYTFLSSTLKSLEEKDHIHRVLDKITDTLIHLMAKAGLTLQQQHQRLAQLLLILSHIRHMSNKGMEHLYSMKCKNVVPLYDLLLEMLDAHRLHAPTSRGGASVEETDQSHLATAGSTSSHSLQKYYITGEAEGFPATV

[32] = molecular target: Muscarinic acetylcholine receptor M3 (Homo sapiens) (UniProt P20309); test: Muscarinic M3 Eurofins-Panlabs radioligand binding assay; settings: Compound concentration 10.0 uM
[33] = molecular target: D(3) dopamine receptor (Homo sapiens, UniProt P35462); settings: Compound concentration 10.0 uM
[34] = molecular target: Beta-3 adrenergic receptor (Homo sapiens) (UniProt P13945); settings: Compound concentration 10.0 uM; remark: listed apart in the source
[35] = molecular target: T2, Muscarinic acetylcholine receptor M1 (Homo sapiens) (UniProt P11229); test: Muscarinic M1 Eurofins-Panlabs radioligand binding assay; settings: Compound concentration 10.0 uM
T2 sequence (whole entry): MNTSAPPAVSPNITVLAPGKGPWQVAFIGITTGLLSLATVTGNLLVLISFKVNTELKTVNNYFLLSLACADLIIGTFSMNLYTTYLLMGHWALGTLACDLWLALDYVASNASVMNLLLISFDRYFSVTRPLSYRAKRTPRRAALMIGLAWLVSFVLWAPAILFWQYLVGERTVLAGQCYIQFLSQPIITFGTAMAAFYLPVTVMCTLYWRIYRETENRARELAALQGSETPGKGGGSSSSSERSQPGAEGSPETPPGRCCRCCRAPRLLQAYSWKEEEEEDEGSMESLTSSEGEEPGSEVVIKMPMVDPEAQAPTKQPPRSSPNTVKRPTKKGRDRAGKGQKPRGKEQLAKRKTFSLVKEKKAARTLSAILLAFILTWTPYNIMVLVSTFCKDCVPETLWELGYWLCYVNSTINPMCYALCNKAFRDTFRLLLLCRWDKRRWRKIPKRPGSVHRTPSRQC

[36] = molecular target: Phospholipase A2 (Sus scrofa) (UniProt A0A8D1VEY7); test: Phospholipase PLA2-I Eurofins-Panlabs enzyme assay; design: substrate with concentration; settings: Compound concentration 10.0 uM
[37] = molecular target: RAC-alpha serine/threonine-protein kinase (Homo sapiens) (UniProt P31749); test: Protein Serine/Threonine Kinase, PKBα/Akt1 Eurofins-Panlabs enzyme assay; settings: Compound concentration 10.0 uM

Row | SMILES | inhibition [2] [%] | inhibition [3] [%] | inhibition [4] [%] | inhibition [6] [%] | inhibition [9] [%] | inhibition [10] [%] | inhibition [11] [%] | inhibition [12] [%] | inhibition [14] [%] | inhibition [15] [%] | inhibition [16] [%] | inhibition [17] [%] | inhibition [19] [%] | inhibition [20] [%] | inhibition [21] [%] | inhibition [22] [%] | inhibition [24] [%] | inhibition [25] [%] | inhibition [26] [%] | inhibition [28] [%] | also measured
1 | Cc1cc(OC2CCS(=O)(=O)CC2)cc(C)c1-c1cccc(COc2ccc(CCC(=O)O)c(F)c2)c1 | 3.83 | 5 | 21.5 | 3 | 17 | 24 | 19 | 2 | 19.6 | 17 | 0 | 53.7 | -10 | 7 | 7 | -4 | 29 | -8 | 15 | 8 | inhibition [1]: 2%; inhibition [5]: 1%; inhibition at 30 min, 10 µM [7]: 1% (not active); inhibition [8]: 14%; inhibition [13]: -0.18%; inhibition [18]: -8%; inhibition [23]: 19.1%; inhibition [27]: -1%; inhibition [29]: 32.2%; inhibition [30]: 4%; inhibition [31]: 3%; inhibition [32]: 4%; inhibition [33]: 59.6%; inhibition [34]: -5.43%; inhibition [35]: -9%; inhibition [36]: 6%; inhibition [37]: -1%
2 | Cc1cc(OC2CCS(=O)(=O)CC2)cc(C)c1-c1cccc(COc2ccc(C(=O)O)c(F)c2)c1 | -1.42 | -8 | 3 | 8 | 26 | -3 | -3 | -1 | 1.49 | 3 | 14 | 42.2 | 8 | 0 | 20 | 5 | 3 | 3 | -3 | 6 | inhibition [29]: 17.5%; inhibition [30]: -3%; inhibition [31]: 7%; inhibition [32]: 1%; inhibition [33]: 7.34%; inhibition [34]: 6.71%; inhibition [35]: -7%

Reference: ChEMBL document CHEMBL5058642, “Data for DCP probe TP-051” (2022)
